The values that follow come from article PMC6270838, “Design and Synthesis of C-Terminal Modified Cyclic Peptides as VEGFR1 Antagonists” (Molecules, 2014).

Bridge positions count the residues as written; N and C are the ends. Peptide text beside a SMILES is read from it. * marks the point of attachment. X1 = COc1ccc2c(CN*)cc(=O)oc2c1

The target in data set [1] is recombinant human VEGFR1 extracellular domains (ECD) (Homo sapiens, UniProt P17948). Particulars: average of at least 3 tests each in triplicate. The procedure:
Peptides VEGFR1 binding ability was determined by a competition ELISA test. Briefly, recombinant human VEGFR1 extracellular domains (ECD) were adsorbed on the surface of a 96-well microplate. After washing and BSA blocking, the plate was incubated with different compounds at 100 µM in competition with biotinylated VEGF (btVEGF). After additional washing steps, the remaining btVEGF was detected by chemiluminescence, via an HRP-conjugated streptavidin.
The 96-well plates were coated with humanized extracellular domains (ECD) of VEGFR-1 (R&D Systems, Abingdon, UK) in PBS (20 ng/well) overnight at 4 °C. On the following day, the plates were washed with 250 µL wash buffer (PBS containing 0.1% (v/v) Tween 20) three times and treated with blocking buffer (PBS containing 3% (w/v) BSA) at 37 °C for 2 h, followed by three washes with wash buffer. 50 µL of peptides solution at twice the desired final concentration (in PBS containing 2% DMSO) were added in triplicate wells and the plate was kept at 37 °C for 1 h. A solution of btVEGF-A165 (R & D Systems, Abingdon, UK) at twice the desired final concentration (typically 100 pM) in 50 µL PBS was added. After 2 h incubation, the plates were washed four times with wash buffer. 100 µL of Streptavidin‑Horseradish Peroxidase (Amersham, Pittsburgh, PA, USA) diluted 1:8000 w in PBS containing 0.1% (v/v) Tween 20 and 0.3% (w/v) BSA) were then added to each well to detect the btVEGF‑A165 bound to the ECD of VEGFR1. After 45 min incubation at 37 °C and in the dark, the plate was washed five times with wash buffer. A volume of 100 µL of SuperSignal West Pico Chemioluminescent Substrate (Pierce, Rockford, IL, USA) was added and the chemiluminescence was quantified with a Perkin Elmer Victor 2 spectrophotometer (Victor Wallac Multilabel reader). The percentages of displacement were calculated by the following formula: 100 × [1 − (S − NS)/(MS − NS)] where S is the signal measured, NS is the nonspecific binding signal defined as the signal measured in the absence of coated receptor on the microplate, and MS is the maximum binding signal obtained with (bt)-VEGF-A165 without competitor.

Data set [2] can be described thus: water solubility (qualitative). As to conditions: qualitative comparison between peptides. Type of data set: physicochemical.
The next data set relates to D2 domain of VEGFR1. Particulars: shares with VEGF a common binding site on D2 (His223, Arg224); cited from earlier work. The source says: In the laboratory, a series of cyclic octapeptides has been developed.

Chain of recombinant human VEGFR1 extracellular domains (ECD) (P17948 27-758 limits assumed): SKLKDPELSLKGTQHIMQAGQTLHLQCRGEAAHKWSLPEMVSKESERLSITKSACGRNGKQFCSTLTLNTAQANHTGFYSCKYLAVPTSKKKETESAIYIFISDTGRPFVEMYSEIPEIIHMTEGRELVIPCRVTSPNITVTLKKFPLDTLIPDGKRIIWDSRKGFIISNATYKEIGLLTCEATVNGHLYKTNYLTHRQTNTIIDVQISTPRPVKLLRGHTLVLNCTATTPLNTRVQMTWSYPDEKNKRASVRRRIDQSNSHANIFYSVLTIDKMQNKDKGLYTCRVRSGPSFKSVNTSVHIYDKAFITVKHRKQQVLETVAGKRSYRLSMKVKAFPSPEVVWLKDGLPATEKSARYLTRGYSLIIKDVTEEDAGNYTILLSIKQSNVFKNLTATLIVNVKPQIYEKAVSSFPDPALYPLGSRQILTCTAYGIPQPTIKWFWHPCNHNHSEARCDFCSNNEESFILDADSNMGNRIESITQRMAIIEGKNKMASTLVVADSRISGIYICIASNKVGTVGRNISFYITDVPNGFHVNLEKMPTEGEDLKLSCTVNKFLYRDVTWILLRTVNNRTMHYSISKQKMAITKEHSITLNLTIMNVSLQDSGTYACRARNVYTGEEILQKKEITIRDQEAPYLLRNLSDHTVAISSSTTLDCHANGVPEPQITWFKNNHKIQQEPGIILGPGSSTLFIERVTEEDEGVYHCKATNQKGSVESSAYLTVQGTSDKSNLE

With `COc1ccc2c(CNC(=O)[C@@H]3CCC(=O)N[C@@H](Cc4ccc(O)cc4)C(=O)N[C@@H](CCCCN)C(=O)N[C@@H](CC(=O)O)C(=O)N[C@@H](CCC(=O)O)C(=O)NCC(=O)N[C@@H](CC(C)C)C(=O)N[C@@H](CCC(=O)O)C(=O)N3)cc(=O)oc2c1` [Peptide 19] (YKDEGLEE-X1; lactam N-8), the “Displacement (%) 30 µM” value in data set [1] (dose dependence, peptide 30 µM, NA means no activity) was determined as 11%. Besides, the “Displacement (%) 50 µM” value in data set [1] (dose dependence, peptide 50 µM) is on record as 41%. The “Displacement (%) 100 µM” value in data set [1] (dose dependence, peptide 100 µM) was determined as 68%. Also, the “Displacement 100 µM (%)” value in data set [1] (percentage of btVEGF displaced by peptide at 100 µM, btVEGF-A165 typically 100 pM, chemiluminescence, same btVEGF batch) is recorded as 68%. Moreover, in data set [2], the water solubility entry was “slightly less water soluble than 15 and 16”.

As to “c[YYDEGLEE]-NH2 (sidechain bridge or staple) [Peptide 1]”, the “interaction with the D2 domain of VEGFR1 by NMR” value with D2 domain of VEGFR1 is “interacts”.
